Legend:
[1] = target: T1, human sphingosine-1-phosphate receptor 1 (S1P1) (Homo sapiens, UniProt P21453); assay: Inhibition of cAMP production (HTRF cAMP HiRange), S1P1 CHO-K1 cells; assay type: cell-based; details: for Emax: CHO-K1, efficacy normalized to maximum efficacy of fingolimod, read-out: hS1P1 CAMP SPAN; for EC50: inhibition of cAMP production, S1P1, read-out: hS1P1 CAMP pEC50 (converted)
Outline: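 Intracellular cAMP changes read by TR-FRET (HTRF HiRange, 1 h room temperature) after 30 min compound exposure at 37 °C. Cells: overnight-plated CHO-K1 stably expressing tagged human S1P1 with EA-β-arrestin2. Responses normalized to fingolimod.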
Target sequence in this assay (P21453 whole entry): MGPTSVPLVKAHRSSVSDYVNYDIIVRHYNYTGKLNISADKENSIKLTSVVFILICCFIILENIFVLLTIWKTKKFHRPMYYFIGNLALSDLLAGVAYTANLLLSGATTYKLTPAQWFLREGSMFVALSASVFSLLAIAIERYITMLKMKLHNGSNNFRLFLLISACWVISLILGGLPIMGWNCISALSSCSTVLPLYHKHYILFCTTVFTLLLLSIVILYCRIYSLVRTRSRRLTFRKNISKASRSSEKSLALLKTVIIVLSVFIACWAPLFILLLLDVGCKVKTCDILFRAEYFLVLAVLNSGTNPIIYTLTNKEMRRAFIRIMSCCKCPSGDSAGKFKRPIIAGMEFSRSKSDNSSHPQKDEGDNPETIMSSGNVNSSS

[2] = target: T1, human sphingosine-1-phosphate receptor 1 (S1P1); assay: β-Arrestin2 recruitment assay (PathHunter), S1P1 CHO-K1 cells; assay type: cell-based; details: for Emax: CHO-K1, efficacy normalized to maximum efficacy of fingolimod, read-out: hS1P1 B-arrestin2 SPAN; for EC50: β-arrestin2 recruitment, S1P1, read-out: hS1P1 B-arrestin2 pEC50 (converted)
Outline: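 Agonist-driven β-arrestin2 recruitment measured by β-galactosidase complementation after 60 min compound exposure at 37 °C and 1 h detection at room temperature. Cells: stable CHO-K1 line expressing tagged human S1P1 with EA-β-arrestin2, plated the night before. Data expressed relative to fingolimod.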
Target sequence in this assay (P21453 whole entry): as above
Target sequence in this assay (P32121 whole entry partner): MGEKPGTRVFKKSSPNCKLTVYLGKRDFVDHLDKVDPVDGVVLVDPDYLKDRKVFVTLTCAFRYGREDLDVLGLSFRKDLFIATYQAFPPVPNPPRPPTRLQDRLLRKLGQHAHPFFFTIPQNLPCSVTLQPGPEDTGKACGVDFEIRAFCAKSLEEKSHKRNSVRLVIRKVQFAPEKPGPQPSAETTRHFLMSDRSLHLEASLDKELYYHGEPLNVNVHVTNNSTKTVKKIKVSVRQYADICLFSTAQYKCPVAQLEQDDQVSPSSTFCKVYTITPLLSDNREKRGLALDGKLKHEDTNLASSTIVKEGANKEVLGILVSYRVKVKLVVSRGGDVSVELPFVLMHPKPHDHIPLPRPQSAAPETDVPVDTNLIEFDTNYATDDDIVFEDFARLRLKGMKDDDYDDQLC

| Structure (SMILES) | Emax [1] | EC50 [1] | Emax [2] | EC50 [2] |
| --- | --- | --- | --- | --- |
| CC1CC(=O)c2ccc(-c3nc(-c4cccnc4)no3)cc2O1 (centres unmarked) [Compound 535, 2-methyl-7-[3-(pyridin-3-yl)-1,2,4-oxadiazol-5-yl]-3,4-dihydro-2H-1-benzopyran-4-one] | < 75% | > 0.316 µM | < 75% | < 10 µM |
| CC1CC(=O)c2ccc(-c3nc(-c4ccncc4)no3)cc2O1 (centres unmarked) [Compound 536, 2-methyl-7-[3-(pyridin-4-yl)-1,2,4-oxadiazol-5-yl]-3,4-dihydro-2H-1-benzopyran-4-one] | < 75% | > 0.316 µM | < 75% | < 10 µM |
| CCC1(CC)CC(=O)c2cc(-c3nc(-c4cncc(C(N)=O)c4)no3)ccc2O1 [Compound 537, 5-(5-(2,2-diethyl-4-oxochroman-6-yl)-1,2,4-oxadiazol-3-yl)nicotinamide] | > 75% | < 0.316 µM | < 75% | < 10 µM |
| CCC1(CC)CC(=O)c2cc(-c3nc(-c4cncc(NC(C)=O)c4)no3)ccc2O1 [Compound 538, N-(5-(5-(2,2-diethyl-4-oxochroman-6-yl)-1,2,4-oxadiazol-3-yl)pyridin-3-yl)acetamide] | < 75% | < 0.316 µM | < 75% | < 10 µM |
| CCC1(CC)CC(=O)c2cc(-c3nc(-c4ccc5[nH]c(=O)[nH]c5c4)no3)ccc2O1 [Compound 539, 5-(5-(2,2-diethyl-4-oxochroman-6-yl)-1,2,4-oxadiazol-3-yl)-1H-benzo[d]imidazol-2(3H)-one] | < 75% | < 0.316 µM | < 75% | < 10 µM |
| Cc1nccnc1-c1nc(-c2ccc3c(c2)nnn3CC(C)(C)CO)no1 [Compound 540, 2,2-dimethyl-3-(5-(5-(3-methylpyrazin-2-yl)-1,2,4-oxadiazol-3-yl)-1H-benzo[d] [1,2,3]triazol-1-yl)propan-1-ol] | < 75% | > 0.316 µM | < 75% | > 10 µM |
| Cc1ccncc1-c1nc(-c2ccc3c(c2)nnn3CC(C)(C)CO)no1 [Compound 541, 2,2-dimethyl-3-(5-(5-(4-methylpyridin-3-yl)-1,2,4-oxadiazol-3-yl)-1H-benzo[d] [1,2,3]triazol-1-yl)propan-1-ol] | < 75% | > 0.316 µM | < 75% | > 10 µM |
| CC(C)n1nnc2cc(-c3cc(-c4ccccc4F)c[nH]3)ccc21 [Compound 542, 5-[4-(2-fluorophenyl)-1H-pyrrol-2-yl]-1-(propan-2-yl)-1H-1,2,3-benzotriazole] | < 75% | > 0.316 µM | < 75% | < 10 µM |
| CC(C)n1nnc2cc(-c3cc(-c4ccccc4)n(C)c3)ccc21 [Compound 544, 5-(1-methyl-5-phenyl-1H-pyrrol-3-yl)-1-(propan-2-yl)-1H-1,2,3-benzotriazole] | < 75% | > 0.316 µM | < 75% | < 10 µM |
| CCC1(CC)CC(=O)c2cc(-c3nc(-c4ccc(C(F)(F)F)nc4)no3)ccc2O1 [Compound 548, 2,2-diethyl-6-(3-(6-(trifluoromethyl)pyridin-3-yl)-1,2,4-oxadiazol-5-yl)chroman-4-one] | < 75% | > 0.316 µM | < 75% | > 10 µM |
| CCC1(CC)CC(=O)c2cc(-c3ncc(-c4ccnc(O)c4)cn3)ccc2O1 [Compound 552, 2,2-diethyl-6-(5-(2-hydroxypyridin-4-yl)pyrimidin-2-yl)chroman-4-one] | < 75% | > 0.316 µM | < 75% | > 10 µM |
| CCC1(CC)CC(=O)c2cc(-c3nc(-c4ccnc(NS(C)(=O)=O)c4)no3)ccc2O1 [Compound 556, N-(4-(5-(2,2-diethyl-4-oxochroman-6-yl)-1,2,4-oxadiazol-3-yl)pyridin-2-yl)methanesulfonamide] | > 75% | < 0.316 µM | < 75% | < 10 µM |
| CCC1(CC)CC(=O)c2cc(-c3nc(-c4cncc(C(F)(F)F)c4)no3)ccc2O1 [Compound 557, 2,2-diethyl-6-(3-(5-(trifluoromethyl)pyridin-3-yl)-1,2,4-oxadiazol-5-yl)chroman-4-one] | > 75% | > 0.316 µM | < 75% | < 10 µM |
| Cc1nc2cc(-c3nnc(-c4ccc(NC(C)C)c(C#N)c4)o3)ccc2[nH]1 [Compound 560, 5-[5-(2-methy1-1H-1,3-benzodiazol-5-yl)-1,3,4-oxadiazol-2-yl]-2-[(propan-2-yl)amino]benzonitrile] | > 75% | < 0.316 µM | > 75% | < 10 µM |
| Cc1nc2cc(-c3nnc(-c4ccc(NCC(F)F)c(C#N)c4)o3)ccc2[nH]1 [Compound 561, 2-[(2,2-difluoro-ethyl)amino]-5-[5-(2-methyl-1H-1,3-benzodiazol-5-yl)-1,3,4-oxadiazol-2-yl]benzonitrile] | > 75% | < 0.316 µM | < 75% | < 10 µM |
| CCC1(CC)CC(=O)c2cc(-c3nc(-c4cncc(C)c4)no3)ccc2O1 [Compound 563, 2,2-diethyl-6-(3-(5-methylpyridin-3-yl)-1,2,4-oxadiazol-5-yl)chroman-4-one] | > 75% | < 0.316 µM | < 75% | < 10 µM |
| COc1ccccc1-c1cnc(-c2ccc3c(c2)nnn3C(C)C)nc1 [Compound 565, 1-isopropyl-5-(5-(2-methoxyphenyl)pyrimidin-2-yl)-1H-benzo[d][1,2,3]triazole] | > 75% | < 0.316 µM | > 75% | < 10 µM |
| COc1ccccc1-c1c[nH]c(-c2ccc3c(c2)nnn3C(C)C)c1 [Compound 566, 5-[4-(2-methoxyphenyl)-1H-pyrrol-2-yl]-1-(propan-2-yl)-1H-1,2,3-benzotriazole] | < 75% | > 0.316 µM | < 75% | > 10 µM |

Results, then the compound that gave them:

| Emax [1] | EC50 [1] | Emax [2] | EC50 [2] | Structure (SMILES) |
| --- | --- | --- | --- | --- |
| < 75% | > 0.316 µM | < 75% | > 10 µM | CCC1(CC)CC(=O)c2cc(-c3nc(-c4ccc(F)nc4)no3)ccc2O1 [Compound 546, 2,2-diethyl-6-(3-(6-fluoropyridin-3-yl)-1,2,4-oxadiazol-5-yl)chroman-4-one] |
| > 75% | < 0.316 µM | > 75% | < 10 µM | CCC1(CC)CC(=O)c2cc(-c3nc(-c4cccnc4F)no3)ccc2O1 [Compound 547, 2,2-diethyl-6-(3-(2-fluoropyridin-3-yl)-1,2,4-oxadiazol-5-yl)chroman-4-one] |
| > 75% | < 0.316 µM | > 75% | < 10 µM | CCC1(CC)CC(=O)c2cc(-c3nc(-c4cnccc4C)no3)ccc2O1 [Compound 549, 2,2-diethyl-6-(3-(4-methylpyridin-3-yl)-1,2,4-oxadiazol-5-yl)chroman-4-one] |
| > 75% | > 0.316 µM | < 75% | < 10 µM | CCC1(CC)CC(=O)c2cc(-c3nc(-c4ccc(C)nc4)no3)ccc2O1 [Compound 550, 2,2-diethyl-6-(3-(6-methylpyridin-3-yl)-1,2,4-oxadiazol-5-yl)chroman-4-one] |
| > 75% | < 0.316 µM | < 75% | < 10 µM | CCC1(CC)CC(=O)c2cc(-c3nc(-c4cncc(F)c4)no3)ccc2O1 [Compound 551, 2,2-diethyl-6-(3-(5-fluoropyridin-3-yl)-1,2,4-oxadiazol-5-yl)chroman-4-one] |
| > 75% | > 0.316 µM | < 75% | < 10 µM | CCC1(CC)CC(=O)c2cc(-c3nc(-c4cccc(OC)n4)no3)ccc2O1 [Compound 553, 2,2-diethyl-6-[3-(6-methoxypyridin-2-yl)-1,2,4-oxadiazol-5-yl]-3,4-dihydro-2H-1-benzopyran-4-one] |
| < 75% | < 0.316 µM | < 75% | < 10 µM | CCC1(CC)CC(=O)c2cc(-c3nc(-c4ccnc(C(N)=O)c4)no3)ccc2O1 [Compound 555, 4-(5-(2,2-diethyl-4-oxochroman-6-yl)-1,2,4-oxadiazol-3-yl)picolinamide] |
| > 75% | < 0.316 µM | > 75% | < 10 µM | CCC1(CC)CC(=O)c2cc(-c3nc(-c4cnccc4C(F)(F)F)no3)ccc2O1 [Compound 558, 2,2-diethyl-6-(3-(4-(trifluoromethyl)pyridin-3-yl)-1,2,4-oxadiazol-5-yl)chroman-4-one] |
| > 75% | < 0.316 µM | > 75% | < 10 µM | CCC1(CC)CC(=O)c2cc(-c3noc(-c4cccnc4)n3)ccc2O1 [Compound 559, 2,2-diethyl-6-(5-(pyridin-3-yl)-1,2,4-oxadiazol-3-yl)chroman-4-one] |
| > 75% | < 0.316 µM | > 75% | < 10 µM | CCC1(CC)CC(=O)c2cc(-c3nc(-c4cccnc4C(F)(F)F)no3)ccc2O1 [Compound 562, 2,2-diethyl-6-(3-(2-(trifluoromethyl)pyridin-3-yl)-1,2,4-oxadiazol-5-yl)chroman-4-one] |
| > 75% | < 0.316 µM | > 75% | < 10 µM | CCC1(CC)CC(=O)c2cc(-c3nc(-c4cccnc4C)no3)ccc2O1 [Compound 564, 2,2-diethyl-6-(3-(2-methylpyridin-3-yl)-1,2,4-oxadiazol-5-yl)chroman-4-one] |

Source: patent publication US20230114241A1, “METHODS OF TREATING EPILEPSY USING THE SAME” (Trevena, Inc., priority 2019, published 2023)
